Biological target: T1, acyltransferase from M. smegmatis (MsAcT) (Mycolicibacterium smegmatis, UniProt A0R5U7)
T1 construct: gene MSMEG_6317; His6-tagged, expressed in Escherichia coli, cell-free extract
Test: amide formation screen with cell-free extract
Format: cell-based
Conditions: co-substrate benzylamine 20 mM; ester 20 mM; buffer, 30 C

T1 sequence (A0R5U7 entry or part of it): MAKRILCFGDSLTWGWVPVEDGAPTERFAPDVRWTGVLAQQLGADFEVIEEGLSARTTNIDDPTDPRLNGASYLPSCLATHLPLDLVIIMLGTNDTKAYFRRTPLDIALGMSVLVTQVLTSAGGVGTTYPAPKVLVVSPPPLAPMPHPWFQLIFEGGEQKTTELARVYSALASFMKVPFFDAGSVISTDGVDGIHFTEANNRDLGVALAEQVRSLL

## CCOC(=O)c1ccco1 [1e, ethyl 2-furoate]
  amide formation screen with cell-free extract: MsAcT and variants displayed activity with ethyl 2-furoate 1e

Reference: article PMC11165448, “Biocatalytic Heteroaromatic Amide Formation in Water Enabled by a Catalytic Tetrad and Two Access Tunnels” (ACS Catalysis, 2024)
